Results as given in article PMC4300529 (Anesthesiology, 2015).

Experiments:
mice [1] = assay: Loss-of-righting reflex anesthetic potency assay in mice; type: in vivo, mice (C57BL/6J)
[2] = pharmacokinetic profiling; type: in vivo; details: data not shown
Xenopus tadpoles = assay: Xenopus tadpole anesthetic activity; type: in vivo, Xenopus laevis
apoferritin = apoferritin (Equus caballus, UniProt P02791); assay: biochemical
mice [3] = details: previously reported; cited from earlier work

apoferritin, sequence (P02791 2-175 limits assumed): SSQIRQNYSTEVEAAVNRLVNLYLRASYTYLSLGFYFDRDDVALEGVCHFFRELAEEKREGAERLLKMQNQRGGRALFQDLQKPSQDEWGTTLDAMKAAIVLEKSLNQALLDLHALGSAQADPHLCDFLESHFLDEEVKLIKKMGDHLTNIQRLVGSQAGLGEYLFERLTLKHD

Row | SMILES | mean duration of LoRR (mice [1]; 100 mg/kg iv) [s] | onset of LoRR (mice [1]; intravenous, doses roughly twice that of propofol (moles per kilogram)) [s] | LogED50 for LoRR (mice [1]; iv injection, unit printed only with the propofol value of the same legend) [mmol/kg] | pharmacokinetic profile (uptake, distribution, elimination) [2] | anesthetic activity / potency in tadpoles (immobility), in words (Xenopus tadpoles; tadpole immobility after 60 minutes exposure, SAR statements to figs 4-6) | IC50 (apoferritin) [µM] | duration of LoRR (mice [1]; 20 mg/kg (0.11 mmol/kg)) | logED50 in mice (mice [3]) [mmol/kg] | toxicity in tadpoles at 100 μM (Xenopus tadpoles; 100 μM)
1 | Cc1ccc(-c2ccc(=O)n(CC(=O)NCCc3ccccc3)n2)cc1 [compound 5] | 245 ± 65 | < 20 | −0.761 | did not show any remarkable patterns of uptake, distribution, or elimination | optimal anesthetic activity |  |  |  | 
2 | CC(C)c1cccc(C(C)C)c1O [propofol, reference compound] |  |  |  |  |  | 23 | 445 ± 27 | −1.03 | produced death at 100 μM
